Results: US11426367B2, “Methods of treating substance abuse” (Perception Neuroscience, Inc., priority 2018, dated 2022)
“Also recorded” adds a separate entry of the source.

Legend:
[1] = system: medial forebrain bundle self-stimulation in rats; test: Intracranial self-stimulation (ICSS), frequency-rate procedure; details: for M50, Test, mean log M50 frequency (SEM) / Threshold (T0), Test, mean log T0 frequency (SEM) / M50, Baseline, mean log M50 frequency (SEM) / Threshold (T0), Baseline, mean log T0 frequency (SEM): 10 rats
[2] = system: development of drug tolerance to ethanol; details: tilt-plane test, Khanna et al., 1993; cited from earlier work
Morphine Seizures = details: Not blocked by naloxone; Kolesnikov et al., 1997; cited from earlier work
[3] = system: medial forebrain bundle self-stimulation in rats; details: doses 5.6, 10 mg/kg, Hillhouse et al., 2014; cited from earlier work
[4] = system: rewarding effects of morphine; details: Table 11, Suzuki et al., 2000; cited from earlier work
patients with depression = details: oral; Non Patent Literatures 15 and 16; cited from earlier work
Control C57/B6 mice = test: Conditioned place preference test (dependence test) in control mice; details: control mice, 10 mg/kg
Protocol: 15-minute habituation was performed for 3 days. Then, 30-minute conditioning was performed on day 4 to day 10, and a behavioral evaluation test was performed on day 11. Saline was injected on day 5, day 7, and day 9. […] In each of the groups, the injection was performed three times, i.e., on day 4, day 6, and day 8. Saline means a group injected with saline.
The administration of an agent was performed by the same methods as the methods described in Example 2.
The place preference test was performed using a conditioned place preference test apparatus (BrainScienceIdea Co., Ltd., Osaka, Japan). The analysis of the results of the place preference test was performed by one-way analysis of variance (one-way ANOVA), followed by a least significant difference test (LSD test). Data are presented as the mean plus minus standard error of the mean (n=9 or 10 mice/group). *p<0.05 and **p<0.01 indicate significant differences as compared to a group injected with saline.

[5] = system: morphine withdrawal signs in rats; test: Naloxone-precipitated withdrawal from subchronic morphine; assay type: in vivo; details: 0.25 mg/kg i.p. before naloxone 1 mg/kg SC, morphine 10 mg/kg SC b.i.d.
Protocol: Forty (40) male Wistar rats served as test subjects in this study. Animals were pair housed with unrestricted access to rodent chow and water (SOP ROD.03.01, SOP ROD.04.01, SOP ROD.18). […] All experimental activity occurring during the animals' light cycle. All animal use procedures were performed in accordance with the principles of the Canadian Council on Animal Care (CCAC).
Forty (40) male Wistar rats were assigned to 5 groups of N=8 rats per group. Group A was dosed with saline vehicle (Sal; subcutaneous (SC) route) twice daily (approx. 08:00±1 h and 18:00±1 h) for 12 days. […] This treatment regimen was designed to induce opioid dependence (Erami et al., 2012). […] On days 9 and 12, rats were tested for naloxone precipitated withdrawal. According to a cross-over design (see Table 4: Treatment Groups), all rats in each group received either acute saline, or naloxone hydrochloride (1 mg/kg; dose volume 2 ml/kg) injection by the SC route, 5 minutes prior to behavioral testing. […] Lofexidine doses are based on literature values (e.g. Shearman et al., 1979). Immediately after vehicle or naloxone injection, rats were transferred to activity chambers for 30 minutes where the animals were visually assessed for somatic signs associated with opioid withdrawal (e.g. writhes, chews, ptosis, WDS, shakes, tremor, penile grooming, body weight change; see Higgins and Sellers, 1994). Simultaneously, the activity pattern (distance travelled, rearing) of each rat was automatically recorded.
Locomotor activity. Spontaneous activity in the rats was measured with the automated Med Associates activity test chamber for 30 minutes with 10-minute time bins. The tracking arena was 17″W×17″L×12″H, sensor bars are secured 1″ above the floor to track distance travelled, and a second set of sensor bars are placed ˜5″ above the floor to measure vertical movement and rearing activity. The parameters set on the tracking software were as follows: resolution—50 milliseconds (ms), box size—4 beams, resting delay—500 ms, and ambulatory trigger—2 (SOP ROD.25). […]

[6] = 3 mg/kg i.p. 2 hours prior to test session
[7] = 10 mg/kg i.p. 2 hours prior to test session
[8] = 30 mg/kg i.p. 2 hours prior to test session
[9] = baseline session before dosing on the 3 mg/kg test day
[10] = baseline session before dosing on the 10 mg/kg test day
[11] = baseline session before dosing on the 30 mg/kg test day

COC(=O)[C@H]1[C@@H](OC(=O)c2ccccc2)C[C@@H]2CC[C@H]1N2C [Cocaine, cocaine]
ICSS frequency-rate response curve ([1]; rats, 10 mg/kg): shifts the frequency curve to the left

CNC1(c2ccccc2Cl)CCCCC1=O (racemic) [RS(+/−)-ketamine]
Ethanol Tolerance, dose blocking development of tolerance [2]: 1 - tilt-plane test mg/kg
Morphine Seizures, dose (Morphine Seizures): 0.3 mg/kg
ICSS, anhedonia [3]: 5.6, 10 anhedonia
Morphine CPP, dose blocking the rewarding effects of morphine [4]: 10 mg/kg
effective oral doses in patients with depression (patients with depression): 0.5 mg/kg
CPP score (conditioned place preference test) (Control C57/B6 mice): significantly increased the CPP score

CC(Oc1c(Cl)cccc1Cl)C1=NCCN1 (stereo not drawn) [lofexidine, Lofexidine]
overall morphine withdrawal scores (naloxone-precipitated withdrawal signs) [5]: significantly attenuated the naloxone-induced withdrawal signs; also recorded: effective

N[C@@]1(c2ccccc2Cl)CCC[C@@H](O)C1=O [R-hydroxynorketamine]
M50, Test, mean log M50 frequency (SEM) [1, 6]: 2.00 (0.01) log/Hz
Threshold (T0), Test, mean log T0 frequency (SEM) [1, 6]: 1.92 (0.02) log/Hz
M50, Test, mean log M50 frequency (SEM) [1, 7]: 2.00 (0.01) log/Hz
Threshold (T0), Test, mean log T0 frequency (SEM) [1, 7]: 1.90 (0.02) log/Hz
M50, Test, mean log M50 frequency (SEM) [1, 8]: 1.99 (0.02) log/Hz
Threshold (T0), Test, mean log T0 frequency (SEM) [1, 8]: 1.91 (0.03) log/Hz
M50, Baseline, mean log M50 frequency (SEM) [1, 9]: 2.00 (0.02) log/Hz
Threshold (T0), Baseline, mean log T0 frequency (SEM) [1, 9]: 1.89 (0.02) log/Hz
M50, Baseline, mean log M50 frequency (SEM) [1, 10]: 1.98 (0.01) log/Hz
Threshold (T0), Baseline, mean log T0 frequency (SEM) [1, 10]: 1.89 (0.02) log/Hz
M50, Baseline, mean log M50 frequency (SEM) [1, 11]: 1.99 (0.02) log/Hz
Threshold (T0), Baseline, mean log T0 frequency (SEM) [1, 11]: 1.90 (0.02) log/Hz
ICSS frequency-rate response curve ([1]; rats, 3, 10 or 30 mg/kg i.p. 2 hours prior to test session, vs saline vehicle): did not alter the frequency-response function
